Experiments:
[1] = Decomposition by TGA (thermogravimetric analysis); assay type: physicochemical; conditions: for TGA onset [° C.]: overview table
Method: Melamine hydrogenphenylphosphonate (MPPO) from example 1 (10.000 g, 0.04 mol) is tempered in a glass tube at 300° C./5·10^−1 mbar for 2 h and additional for 22 h. The mass balance is monitored for the residual by gravimetrically methods. The obtained product is characterized by phosphorous content, 1,3,5-triazine components and thermogravimetry.
Based on the results of the thermo gravimetric analysis (TGA) of the compounds in examples A1-A5 one can conclude that the condensation of melamine hydrogene phenyphosphonate occurs in a two step mode. […] The mode of condensation therefore may be controlled in a balanced thermometric and stoichiometric approach. According to example A2-A4 in a temperature range of 280-300° C. melam formation is favoured. However, other temperature profiles could be more suitable for other stoichiometric ratios. The increasing phosphorous content in the compounds of example A2-A3 in comparison to example A5 points to the condensation of phenylphosphonic anions.

Solubility in water = assay type: physicochemical
Method: Solubility in water: 11 g/L (25° C.); 70 g/L (95° C.)

Row | Substance | Decomposition by TGA: onset [1] | TGA Mass loss at T ° C. [%] ([1]; T = 372 ° C.) | Decomposition by TGA: mass loss at onset ([1]; at onset 345° C., 1 molÄq H2O) | Decomposition by TGA: mass loss at onset ([1]; at onset 372° C.) | TGA onset [° C.] [1] | Decomposition by TGA: onset (second step) ([1]; second onset printed) | Solubility in water (Solubility in water; 25° C.) | Solubility in water (Solubility in water; 95° C.) | TGA Mass loss at T ° C. [%] ([1]; T = 320 ° C.) | Decomposition by TGA: mass loss at onset ([1]; at onset 277° C.)
1 | Melam Phenylhydrogenphosphonate [Example A5] | 345 °C | 372 [−15%] | −4.5% | −55% | 345 °C | 372 °C | – | – | – | –
2 | Melamine Phenylhydrogenphosphonate (MPPO) [Example A1] | 277 °C | – | – | – | 277 °C | – | 11 mg/mL | 70 mg/mL | 320 [−10%] | −12%

From US20130338264A1, “CONDENSATION PRODUCTS OF MELAMINE AND PHENYLPHOSPHONIC ACID AND THEIR USE AS FLAME RETARDANTS” (BASF SE, priority 2011, published 2013)
